Measurements from patent US20260325533A1, “CDK INHIBITOR COMPOUNDS” (ALEKSIA THERAPEUTICS, INC., priority 2023, published 2026).
Like-named read-outs stand apart in the source and are kept apart here.

Columns and labels:
Type in all cases: biochemical
CDK6/CCND1 = CDK6/CCND1 (Homo sapiens, UniProt Q00534); experiment: CDK6 homogeneous time-resolved fluorescence (HTRF) kinase assay; details: CDK6/CCND
How it was run: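 1 nM enzyme, 1 mM ATP, 50 nM ULight-4E-BP1 (Thr37/46) peptide, 1% DMSO; 20 min compound preincubation, 60 min reaction, 23 °C. EDTA stop, 2 nM Eu-anti-phospho-4E-BP1 antibody 60 min. TR-FRET 665 nm (or 665/615 ratio); IC50 from 11-point half-log titration, top 10 μM.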

CDK1/CCNB1 = CDK1/CCNB1 (Homo sapiens, UniProt P06493); experiment: CDK1 homogeneous time-resolved fluorescence (HTRF) kinase assay; details: CDK1/CCNB; x = IC50 >250 nM; read-out: CDK1/CCNB IC50 (>250 nM column)
CDK1/CCNB1, sequence (P06493 whole entry): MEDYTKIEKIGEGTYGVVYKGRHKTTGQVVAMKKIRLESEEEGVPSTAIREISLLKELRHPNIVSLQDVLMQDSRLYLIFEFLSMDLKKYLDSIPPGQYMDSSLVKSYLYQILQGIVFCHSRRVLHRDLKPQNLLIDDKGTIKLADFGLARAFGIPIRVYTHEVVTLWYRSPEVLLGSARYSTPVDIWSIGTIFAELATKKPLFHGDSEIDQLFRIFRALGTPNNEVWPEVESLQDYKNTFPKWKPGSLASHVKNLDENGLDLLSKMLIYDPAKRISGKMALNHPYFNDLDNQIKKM
CDK1/CCNB1, sequence (P14635 whole entry partner): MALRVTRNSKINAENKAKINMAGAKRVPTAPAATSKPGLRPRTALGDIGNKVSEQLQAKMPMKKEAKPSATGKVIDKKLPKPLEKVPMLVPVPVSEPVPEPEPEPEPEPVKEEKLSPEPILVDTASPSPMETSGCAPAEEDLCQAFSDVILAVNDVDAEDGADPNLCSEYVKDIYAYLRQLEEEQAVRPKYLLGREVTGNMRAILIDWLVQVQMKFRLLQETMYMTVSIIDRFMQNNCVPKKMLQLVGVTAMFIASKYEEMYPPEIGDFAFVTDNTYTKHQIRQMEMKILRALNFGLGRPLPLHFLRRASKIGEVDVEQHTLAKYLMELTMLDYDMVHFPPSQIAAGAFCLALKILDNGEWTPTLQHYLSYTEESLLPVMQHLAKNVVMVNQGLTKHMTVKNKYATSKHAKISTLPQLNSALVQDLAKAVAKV
How it was run: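 Kinase activity is measured as Lance signal (665 nm, or 665/615 nm ratio) from europium-labelled anti-phospho-Thr37/46 antibody binding ULight-4E-BP1 peptide. Reactions contain 0.5 nM enzyme, 1 mM ATP, 1% DMSO and run 60 min at 23 °C before EDTA quench.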

CDK2/CCNE1 = CDK2/CCNE1 (Homo sapiens, UniProt P24941); experiment: CDK2 homogeneous time-resolved fluorescence (HTRF) kinase assay; details: CDK2/CCNE
How it was run: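 CDK2/CCNE1 (3 nM) preincubated 20 min at 23 °C with compound, then reacted 60 min at 23 °C with 1 mM ATP and 50 nM ULight-4E-BP1 (Thr37/46) peptide. Stopped with EDTA, phospho-peptide detected by Eu-anti-phospho antibody (665 nm or 665/615 ratio). IC50 from 11-point half-log titrations typically starting at 10 μM.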

CDK4/CCND3 = CDK4/CCND3 (Homo sapiens, UniProt P11802); experiment: CDK4 homogeneous time-resolved fluorescence (HTRF) kinase assay; details: CDK4/CCND; x = IC50 >250 nM; read-out: CDK4/CCND IC50 (>250 nM column)
CDK4/CCND3, sequence (P11802 whole entry): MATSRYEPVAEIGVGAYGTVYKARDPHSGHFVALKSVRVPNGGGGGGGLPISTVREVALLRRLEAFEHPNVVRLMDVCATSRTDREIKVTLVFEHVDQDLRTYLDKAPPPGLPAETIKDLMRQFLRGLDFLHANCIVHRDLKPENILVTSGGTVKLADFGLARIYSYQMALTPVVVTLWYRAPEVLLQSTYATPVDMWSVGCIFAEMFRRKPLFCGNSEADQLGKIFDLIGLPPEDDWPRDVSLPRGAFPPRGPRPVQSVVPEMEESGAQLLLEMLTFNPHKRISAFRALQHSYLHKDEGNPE
CDK4/CCND3, sequence (P30281 whole entry partner): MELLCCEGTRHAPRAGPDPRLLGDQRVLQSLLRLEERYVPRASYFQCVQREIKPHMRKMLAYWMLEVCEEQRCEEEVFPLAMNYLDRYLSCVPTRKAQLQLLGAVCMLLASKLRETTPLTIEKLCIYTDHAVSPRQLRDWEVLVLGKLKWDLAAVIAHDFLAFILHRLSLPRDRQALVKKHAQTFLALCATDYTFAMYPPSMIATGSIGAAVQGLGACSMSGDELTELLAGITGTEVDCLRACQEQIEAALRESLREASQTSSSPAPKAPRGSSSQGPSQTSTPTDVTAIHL
How it was run: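 Inhibition of CDK4/CCND3 (1.5 nM) was measured at high ATP (1 mM) using 50 nM ULight-labelled 4E-BP1 Thr37/46 peptide; detection used 2 nM europium anti-phospho antibody after EDTA quench. IC50 values came from 11-point half-log titrations typically starting at 10 μM.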

[1] = x = IC50 >250 nM, read-out: CDK6/CCND IC50 (>250 nM column)
[2] = x = IC50 25-250 nM, read-out: CDK2/CCNE IC50 (25-250 nM)
[3] = x = IC50 <25 nM, read-out: CDK2/CCNE IC50 (<25 nM)
[4] = x = IC50 >250 nM, read-out: CDK2/CCNE IC50 (>250 nM column)
[5] = x = IC50 <25 nM, read-out: CDK6/CCND IC50 (<25 nM)

CDK6/CCND1, sequence (Q00534 whole entry): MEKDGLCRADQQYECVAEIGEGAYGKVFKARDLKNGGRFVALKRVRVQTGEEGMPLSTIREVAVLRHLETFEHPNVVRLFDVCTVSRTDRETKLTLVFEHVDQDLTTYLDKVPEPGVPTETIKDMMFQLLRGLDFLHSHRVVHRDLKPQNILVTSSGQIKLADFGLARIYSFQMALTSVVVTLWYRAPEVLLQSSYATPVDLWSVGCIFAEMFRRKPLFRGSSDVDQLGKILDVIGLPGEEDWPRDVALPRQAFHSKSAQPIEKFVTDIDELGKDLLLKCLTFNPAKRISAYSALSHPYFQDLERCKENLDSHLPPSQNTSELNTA
CDK6/CCND1, sequence (P24385 whole entry partner): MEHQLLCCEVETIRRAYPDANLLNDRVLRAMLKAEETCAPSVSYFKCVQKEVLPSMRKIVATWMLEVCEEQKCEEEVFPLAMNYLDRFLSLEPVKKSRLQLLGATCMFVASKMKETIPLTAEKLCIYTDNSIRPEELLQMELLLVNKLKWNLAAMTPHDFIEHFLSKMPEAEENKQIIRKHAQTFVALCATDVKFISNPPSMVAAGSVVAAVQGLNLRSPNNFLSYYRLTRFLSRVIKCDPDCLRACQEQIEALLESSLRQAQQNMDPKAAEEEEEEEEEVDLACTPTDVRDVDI

CS(=O)(=O)c1ccc(Nc2cc3c(C#Cc4ccnc(C(F)F)c4)nccc3cn2)cc1 [Ex 529, 5-((2-(difluoromethyl)pyridin-4-yl)ethynyl)-N-(4-(methylsulfonyl)phenyl)-2,6-naphthyridin-3-amine]
IC50 (CDK6/CCND1; [1]): > 250 nM
IC50 (CDK1/CCNB1): > 250 nM
IC50 (CDK2/CCNE1; [2]): 25 to 250 nM
IC50 (CDK4/CCND3): > 250 nM

CS(=O)(=O)c1ccc(Nc2cc3c(C#Cc4ccc(Cl)c(F)c4N)nccc3cn2)cc1 [Ex 530, 5-((2-amino-4-chloro-3-fluorophenyl)ethynyl)-N-(4-(methylsulfonyl)phenyl)-2,6-naphthyridin-3-amine]
IC50 (CDK6/CCND1; [1]): > 250 nM
IC50 (CDK1/CCNB1): > 250 nM
IC50 (CDK2/CCNE1; [2]): 25 to 250 nM
IC50 (CDK4/CCND3): > 250 nM

CS(=O)(=O)c1ccc(Nc2cc3c(C#Cc4n[nH]c5c4CCC5)nccc3cn2)cc1 [Ex 531, N-(4-(methylsulfonyl)phenyl)-5-((1,4,5,6-tetrahydrocyclopenta[c]pyrazol-3-yl)ethynyl)-2,6-naphthyridin-3-amine]
IC50 (CDK6/CCND1; [1]): > 250 nM
IC50 (CDK1/CCNB1): > 250 nM
IC50 (CDK2/CCNE1; [2]): 25 to 250 nM
IC50 (CDK4/CCND3): > 250 nM

CS(=O)(=O)c1ccc(Nc2cc3c(C#Cc4ccc5c(C#N)c[nH]c5c4)nccc3cn2)cc1 [Ex 532, 6-((7-((4-(methylsulfonyl)phenyl)amino)-2,6-naphthyridin-1-yl)ethynyl)-1H-indole-3-carbonitrile]
IC50 (CDK6/CCND1; [1]): > 250 nM
IC50 (CDK1/CCNB1): > 250 nM
IC50 (CDK2/CCNE1; [2]): 25 to 250 nM
IC50 (CDK4/CCND3): > 250 nM

CS(=O)(=O)c1ccc(Nc2cc3c(C#Cc4cc(CO)cnc4N)nccc3cn2)cc1 [Ex 533, (6-amino-5-((7-((4-(methylsulfonyl)phenyl)amino)-2,6-naphthyridin-1-yl)ethynyl)pyridin-3-yl)methanol]
IC50 (CDK6/CCND1; [1]): > 250 nM
IC50 (CDK1/CCNB1): > 250 nM
IC50 (CDK2/CCNE1; [2]): 25 to 250 nM
IC50 (CDK4/CCND3): > 250 nM

CS(=O)(=O)c1ccc(Nc2cc3c(C#Cc4cnc(N)c(OC(F)F)c4)nccc3cn2)cc1 [Ex 534, 5-((6-amino-5-(difluoromethoxy)pyridin-3-yl)ethynyl)-N-(4-(methylsulfonyl)phenyl)-2,6-naphthyridin-3-amine]
IC50 (CDK6/CCND1; [1]): > 250 nM
IC50 (CDK1/CCNB1): > 250 nM
IC50 (CDK2/CCNE1; [2]): 25 to 250 nM
IC50 (CDK4/CCND3): > 250 nM

CS(=O)(=O)c1ccc(Nc2cc3c(C#Cc4cccc5ncnn45)nccc3cn2)cc1 [Ex 535, 5-([1,2,4]triazolo[1,5-a]pyridin-5-ylethynyl)-N-(4-(methylsulfonyl)phenyl)-2,6-naphthyridin-3-amine]
IC50 (CDK6/CCND1; [1]): > 250 nM
IC50 (CDK1/CCNB1): > 250 nM
IC50 (CDK2/CCNE1; [2]): 25 to 250 nM
IC50 (CDK4/CCND3): > 250 nM

CS(=O)(=O)c1ccc(Nc2cc3c(C#Cc4cnc(C#N)c(N)c4)nccc3cn2)cc1 [Ex 536, 3-amino-5-((7-((4-(methylsulfonyl)phenyl)amino)-2,6-naphthyridin-1-yl)ethynyl)picolinonitrile]
IC50 (CDK6/CCND1; [1]): > 250 nM
IC50 (CDK1/CCNB1): > 250 nM
IC50 (CDK2/CCNE1; [2]): 25 to 250 nM
IC50 (CDK4/CCND3): > 250 nM

CS(=O)(=O)c1ccc(Nc2cc3c(C#Cc4cnncc4N)nccc3cn2)cc1 [Ex 537, 5-((5-aminopyridazin-4-yl)ethynyl)-N-(4-(methylsulfonyl)phenyl)-2,6-naphthyridin-3-amine]
IC50 (CDK6/CCND1; [1]): > 250 nM
IC50 (CDK1/CCNB1): > 250 nM
IC50 (CDK2/CCNE1; [3]): < 25 nM
IC50 (CDK4/CCND3): > 250 nM

CN(C)c1ncc(C#Cc2nccc3cnc(Nc4ccc(S(C)(=O)=O)cc4)cc23)cn1 [Ex 538, 5-((2-(dimethylamino)pyrimidin-5-yl)ethynyl)-N-(4-(methylsulfonyl)phenyl)-2,6-naphthyridin-3-amine]
IC50 (CDK6/CCND1; [1]): > 250 nM
IC50 (CDK1/CCNB1): > 250 nM
IC50 (CDK2/CCNE1; [2]): 25 to 250 nM
IC50 (CDK4/CCND3): > 250 nM

CS(=O)(=O)c1ccc(Nc2cc3c(C#Cc4ccc(OC(F)F)nc4)nccc3cn2)cc1 [Ex 539, 5-((6-(difluoromethoxy)pyridin-3-yl)ethynyl)-N-(4-(methylsulfonyl)phenyl)-2,6-naphthyridin-3-amine]
IC50 (CDK6/CCND1; [1]): > 250 nM
IC50 (CDK1/CCNB1): > 250 nM
IC50 (CDK2/CCNE1; [2]): 25 to 250 nM
IC50 (CDK4/CCND3): > 250 nM

Cc1nc(C#Cc2nccc3cnc(Nc4ccc(S(C)(=O)=O)cc4)cc23)sc1C [Ex 540, 5-((4,5-dimethylthiazol-2-yl)ethynyl)-N-(4-(methylsulfonyl)phenyl)-2,6-naphthyridin-3-amine]
IC50 (CDK6/CCND1; [1]): > 250 nM
IC50 (CDK1/CCNB1): > 250 nM
IC50 (CDK2/CCNE1; [4]): > 250 nM
IC50 (CDK4/CCND3): > 250 nM

Cc1nc(N)nc(C)c1C#Cc1nccc2cnc(Nc3ccc(S(C)(=O)=O)cc3)cc12 [Ex 541, 5-((2-amino-4,6-dimethylpyrimidin-5-yl)ethynyl)-N-(4-(methylsulfonyl)phenyl)-2,6-naphthyridin-3-amine]
IC50 (CDK6/CCND1; [1]): > 250 nM
IC50 (CDK1/CCNB1): > 250 nM
IC50 (CDK2/CCNE1; [2]): 25 to 250 nM
IC50 (CDK4/CCND3): > 250 nM

CC(C)(O)c1nc2ccc(C#Cc3nccc4cnc(Nc5ccc(S(C)(=O)=O)cc5)cc34)cc2[nH]1 [Ex 542, 2-(6-((7-((4-(methylsulfonyl)phenyl)amino)-2,6-naphthyridin-1-yl)ethynyl)-1H-benzo[d]imidazol-2-yl)propan-2-ol]
IC50 (CDK6/CCND1; [1]): > 250 nM
IC50 (CDK1/CCNB1): > 250 nM
IC50 (CDK2/CCNE1; [3]): < 25 nM
IC50 (CDK4/CCND3): > 250 nM

CC(C)(O)Cn1cnc2ccc(C#Cc3nccc4cnc(Nc5ccc(S(C)(=O)=O)cc5)cc34)cc21 [Ex 543, 2-methyl-1-(6-((7-((4-(methylsulfonyl)phenyl)amino)-2,6-naphthyridin-1-yl)ethynyl)-1H-benzo[d]imidazol-1-yl)propan-2-ol]
IC50 (CDK6/CCND1; [1]): > 250 nM
IC50 (CDK1/CCNB1): > 250 nM
IC50 (CDK2/CCNE1; [4]): > 250 nM
IC50 (CDK4/CCND3): > 250 nM

CNc1ccncc1C#Cc1nccc2cnc(Nc3ccc(S(C)(=O)=O)cc3)cc12 [Ex 547, 5-((4-(methylamino)pyridin-3-yl)ethynyl)-N-(4-(methylsulfonyl)phenyl)-2,6-naphthyridin-3-amine]
IC50 (CDK6/CCND1; [1]): > 250 nM
IC50 (CDK1/CCNB1): > 250 nM
IC50 (CDK2/CCNE1; [4]): > 250 nM
IC50 (CDK4/CCND3): > 250 nM

CS(=O)(=O)c1ccc(Nc2cc3c(C#Cc4ccnc5[nH]ncc45)nccc3cn2)cc1 [Ex 548, 5-((1H-pyrazolo[3,4-b]pyridin-4-yl)ethynyl)-N-(4-(methylsulfonyl)phenyl)-2,6-naphthyridin-3-amine]
IC50 (CDK6/CCND1; [1]): > 250 nM
IC50 (CDK1/CCNB1): > 250 nM
IC50 (CDK2/CCNE1; [2]): 25 to 250 nM
IC50 (CDK4/CCND3): > 250 nM

CS(=O)(=O)c1ccc(Nc2cc3c(C#Cc4cc(F)c(N)c(F)c4)nccc3cn2)cc1 [Ex 549, 5-((4-amino-3,5-difluorophenyl)ethynyl)-N-(4-(methylsulfonyl)phenyl)-2,6-naphthyridin-3-amine]
IC50 (CDK6/CCND1; [1]): > 250 nM
IC50 (CDK1/CCNB1): > 250 nM
IC50 (CDK2/CCNE1; [2]): 25 to 250 nM
IC50 (CDK4/CCND3): > 250 nM

CS(=O)(=O)c1ccc(Nc2cc3c(C#Cc4cnn(CC(F)(F)F)c4)nccc3cn2)cc1 [Ex 550, N-(4-(methylsulfonyl)phenyl)-5-((1-(2,2,2-trifluoroethyl)-1H-pyrazol-4-yl)ethynyl)-2,6-naphthyridin-3-amine]
IC50 (CDK6/CCND1; [1]): > 250 nM
IC50 (CDK1/CCNB1): > 250 nM
IC50 (CDK2/CCNE1; [2]): 25 to 250 nM
IC50 (CDK4/CCND3): > 250 nM

CS(=O)(=O)c1ccc(Nc2cc3c(C#Cc4n[nH]c5cccc(F)c45)nccc3cn2)cc1 [Ex 551, 5-((4-fluoro-1H-indazol-3-yl)ethynyl)-N-(4-(methylsulfonyl)phenyl)-2,6-naphthyridin-3-amine]
IC50 (CDK6/CCND1; [5]): < 25 nM
IC50 (CDK1/CCNB1): > 250 nM
IC50 (CDK2/CCNE1; [2]): 25 to 250 nM
IC50 (CDK4/CCND3): > 250 nM

CS(=O)(=O)c1ccc(Nc2cc3c(C#Cc4ncc(N)nc4Cl)nccc3cn2)cc1 [Ex 552, 5-((5-amino-3-chloropyrazin-2-yl)ethynyl)-N-(4-(methylsulfonyl)phenyl)-2,6-naphthyridin-3-amine]
IC50 (CDK6/CCND1; [5]): < 25 nM
IC50 (CDK1/CCNB1): > 250 nM
IC50 (CDK2/CCNE1; [2]): 25 to 250 nM
IC50 (CDK4/CCND3): > 250 nM

Cc1ccc(C#Cc2nccc3cnc(Nc4ccc(S(C)(=O)=O)cc4)cc23)c(C#N)n1 [Ex 553, 6-methyl-3-((7-((4-(methylsulfonyl)phenyl)amino)-2,6-naphthyridin-1-yl)ethynyl)picolinonitrile]
IC50 (CDK6/CCND1; [5]): < 25 nM
IC50 (CDK1/CCNB1): > 250 nM
IC50 (CDK2/CCNE1; [2]): 25 to 250 nM
IC50 (CDK4/CCND3): > 250 nM

CS(=O)(=O)c1ccc(Nc2cc3c(C#Cc4ccc(C#N)cc4F)nccc3cn2)cc1 [Ex 554, 3-fluoro-4-((7-((4-(methylsulfonyl)phenyl)amino)-2,6-naphthyridin-1-yl)ethynyl)benzonitrile]
IC50 (CDK6/CCND1; [1]): > 250 nM
IC50 (CDK1/CCNB1): > 250 nM
IC50 (CDK2/CCNE1; [2]): 25 to 250 nM
IC50 (CDK4/CCND3): > 250 nM

Cc1cnc(C#Cc2nccc3cnc(Nc4ccc(S(C)(=O)=O)cc4)cc23)c(C)n1 [Ex 555, 5-((3,5-dimethylpyrazin-2-yl)ethynyl)-N-(4-(methylsulfonyl)phenyl)-2,6-naphthyridin-3-amine]
IC50 (CDK6/CCND1; [1]): > 250 nM
IC50 (CDK1/CCNB1): > 250 nM
IC50 (CDK2/CCNE1; [2]): 25 to 250 nM
IC50 (CDK4/CCND3): > 250 nM
